Test results from patent US12404279B2, “Deubiquitinase inhibitors and methods of use thereof” (Molecure S.A., priority 2021, dated 2025).
Counter-ions that a name gives are not always drawn. Like-named read-outs stand apart in the source and are kept apart here.

Molecular target: full-length USP7 (Homo sapiens (Human), UniProt Q93009)
Experiment: Enzymatic assay to determine IC50 of USP7 inhibitors (Ubiquitin-Rhodamine 110 cleavage)
Format: biochemical
Conditions: for inhibition at 1 µM: read-out: percent value of inhibition of USP7 activity; for IC50: 0.5 nM USP7, 0.5 μM Ubiquitin-Rhodamine 110, 45 min at 37° C.
Summary of the method: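 Full-length USP7 (0.5 nM) in 50 mM HEPES pH 7.5, 150 mM NaCl, 1 mM DTT, 1 mg/ml BSA, 0.05% Tween20 was preincubated 15 min with DTT at room temperature before compound addition.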

full-length USP7, sequence (Q93009 whole entry): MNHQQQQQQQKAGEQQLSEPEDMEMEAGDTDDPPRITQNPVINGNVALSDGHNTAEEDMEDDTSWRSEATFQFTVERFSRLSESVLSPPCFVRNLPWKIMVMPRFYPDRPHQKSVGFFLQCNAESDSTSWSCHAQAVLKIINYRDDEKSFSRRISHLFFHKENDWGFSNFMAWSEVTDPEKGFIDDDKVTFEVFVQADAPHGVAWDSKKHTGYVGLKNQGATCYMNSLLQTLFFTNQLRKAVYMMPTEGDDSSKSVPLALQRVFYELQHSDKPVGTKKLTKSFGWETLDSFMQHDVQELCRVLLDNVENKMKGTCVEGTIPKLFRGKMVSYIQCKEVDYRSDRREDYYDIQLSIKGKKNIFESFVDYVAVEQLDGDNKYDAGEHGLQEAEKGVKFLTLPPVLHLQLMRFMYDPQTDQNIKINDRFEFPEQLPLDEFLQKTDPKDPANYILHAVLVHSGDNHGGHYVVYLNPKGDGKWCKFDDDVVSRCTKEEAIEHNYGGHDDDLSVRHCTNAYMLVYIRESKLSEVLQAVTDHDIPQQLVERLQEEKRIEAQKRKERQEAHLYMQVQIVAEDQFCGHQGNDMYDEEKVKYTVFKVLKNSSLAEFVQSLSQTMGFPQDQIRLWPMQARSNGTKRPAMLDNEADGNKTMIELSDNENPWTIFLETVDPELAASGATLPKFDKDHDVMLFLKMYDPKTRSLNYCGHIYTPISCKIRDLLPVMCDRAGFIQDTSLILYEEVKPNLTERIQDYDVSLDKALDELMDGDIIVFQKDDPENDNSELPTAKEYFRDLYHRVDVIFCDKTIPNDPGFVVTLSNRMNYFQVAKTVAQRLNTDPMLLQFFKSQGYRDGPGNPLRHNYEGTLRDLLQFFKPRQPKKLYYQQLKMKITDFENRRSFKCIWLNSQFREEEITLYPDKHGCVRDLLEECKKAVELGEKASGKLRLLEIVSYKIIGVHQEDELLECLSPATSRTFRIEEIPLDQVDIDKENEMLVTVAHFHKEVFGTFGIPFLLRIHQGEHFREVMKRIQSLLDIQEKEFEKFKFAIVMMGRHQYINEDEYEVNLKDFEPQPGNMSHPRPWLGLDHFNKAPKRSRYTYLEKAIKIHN

Row | IC50 [nM] | SMILES | further results
1 | < 500 | Cc1cc(C(F)(F)F)nc(-c2ccnc3cc(CN4C(=O)C5C(C4=O)C5(C)C)sc23)c1C[C@H]1CNCCO1 (stereo partly drawn) [Example 95, 6,6-dimethyl-3-((7-(4-methyl-3-(((S)-morpholin-2-yl)methyl)-6-(trifluoromethyl)pyridin-2-yl)thieno[3,2-b]pyridin-2-yl)methyl)-3-azabicyclo[3.1.0]hexane-2,4-dione dihydrochloride] | 
2 | < 500 | Cc1cc(C(F)(F)F)nc(-c2ccnc3cc(CN4C(=O)C5C(C4=O)C5(C)C)sc23)c1C[C@@H]1CNCCO1 (stereo partly drawn) [Example 96, 6,6-dimethyl-3-((7-(4-methyl-3-(((R)-morpholin-2-yl)methyl)-6-(trifluoromethyl)pyridin-2-yl)thieno[3,2-b]pyridin-2-yl)methyl)-3-azabicyclo[3.1.0]hexane-2,4-dione dihydrochloride] | 
3 | 1000 to 10000 | Cc1cc(C(F)(F)F)nc(-c2ccnc3cc(CN4C(=O)C5C(C4=O)C5(C)C)sc23)c1C[C@H]1CN(C)CCO1 (stereo partly drawn) [Example 97, 6,6-dimethyl-3-((7-(4-methyl-3-(((S)-4-methylmorpholin-2-yl)methyl)-6-(trifluoromethyl)pyridin-2-yl)thieno[3,2-b]pyridin-2-yl)methyl)-3-azabicyclo[3.1.0]hexane-2,4-dione dihydrochloride] | 
4 | < 500 | Cc1cc(C(F)(F)F)nc(-c2ccnc3cc(CN4C(=O)C5C(C4=O)C5(C)C)sc23)c1C[C@@H]1CN(C)CCO1 (stereo partly drawn) [Example 98, 6,6-dimethyl-3-((7-(4-methyl-3-(((R)-4-methylmorpholin-2-yl)methyl)-6-(trifluoromethyl)pyridin-2-yl)thieno[3,2-b]pyridin-2-yl)methyl)-3-azabicyclo[3.1.0]hexane-2,4-dione dihydrochloride] | 
5 | < 500 | Cc1cc(C(F)(F)F)nc(-c2ccnc3cc(CN4C(=O)C5C(C4=O)C5(C)C)sc23)c1C(=O)N1CC[C@H](CF)C1 (stereo partly drawn) [Example 105, 3-((7-(3-((S)-3-(fluoromethyl)pyrrolidine-1-carbonyl)-4-methyl-6-(trifluoromethyl)pyridin-2-yl)thieno[3,2-b]pyridin-2-yl)methyl)-6,6-dimethyl-3-azabicyclo[3.1.0]hexane-2,4-dione hydrochloride] | 
6 | < 500 | Cc1cc(C(F)(F)F)nc(-c2ccnc3cc(CN4C(=O)C5C(C4=O)C5(C)C)sc23)c1C(=O)N1C[C@@H](N)[C@@H](C)C1 (stereo partly drawn) [Example 106, 3-((7-(3-((3S,4S)-3-amino-4-methylpyrrolidine-1-carbonyl)-4-methyl-6-(trifluoromethyl)pyridin-2-yl)thieno[3,2-b]pyridin-2-yl)methyl)-6,6-dimethyl-3-azabicyclo[3.1.0]hexane-2,4-dione hydrochloride] | 
7 | < 500 | Cc1cc(C(F)(F)F)nc(-c2ccnc3cc(CN4C(=O)C5C(C4=O)C5(C)C)sc23)c1C(=O)N1C[C@@H](C)[C@H](N)C1 (stereo partly drawn) [Example 107, 3-((7-(3-((3S,4R)-3-amino-4-methylpyrrolidine-1-carbonyl)-4-methyl-6-(trifluoromethyl)pyridin-2-yl)thieno[3,2-b]pyridin-2-yl)methyl)-6,6-dimethyl-3-azabicyclo[3.1.0]hexane-2,4-dione hydrochloride] | 
8 | < 500 | Cc1cc(C(F)(F)F)nc(-c2ccnc3cc(CN4C(=O)C5C(C4=O)C5(C)C)sc23)c1C(=O)N1CCC(N)CC1 (stereo not shown) [Example 112, 3-((7-(3-(4-aminopiperidine-1-carbonyl)-4-methyl-6-(trifluoromethyl)pyridin-2-yl)thieno[3,2-b]pyridin-2-yl)methyl)-6,6-dimethyl-3-azabicyclo[3.1.0]hexane-2,4-dione dihydrochloride] | 
9 | < 500 | Cc1cc(C(F)(F)F)nc(-c2ccnc3cc(CN4C(=O)C5C(C4=O)C5(C)C)sc23)c1C(=O)N1CC[C@H](O)C1 (stereo partly drawn) [Example 113, 3-((7-(3-((S)-3-hydroxypyrrolidine-1-carbonyl)-4-methyl-6-(trifluoromethyl)pyridin-2-yl)thieno[3,2-b]pyridin-2-yl)methyl)-6,6-dimethyl-3-azabicyclo[3.1.0]hexane-2,4-dione hydrochloride] | 
10 | < 500 | Cc1cc(C(F)(F)F)nc(-c2ccnc3cc(CN4C(=O)C5C(C4=O)C5(C)C)sc23)c1C(=O)N1CC[C@H](F)C1 (stereo partly drawn) [Example 114, 3-((7-(3-((S)-3-fluoropyrrolidine-1-carbonyl)-4-methyl-6-(trifluoromethyl)pyridin-2-yl)thieno[3,2-b]pyridin-2-yl)methyl)-6,6-dimethyl-3-azabicyclo[3.1.0]hexane-2,4-dione hydrochloride] | 
11 | 500 to 1000 | Cc1cc(C(F)(F)F)nc(-c2ccnc3cc(CN4C(=O)C5C(C4=O)C5(C)C)sc23)c1C(=O)N1CC[C@H](CN)C1 (stereo partly drawn) [Example 115, 3-((7-(3-((R)-3-(aminomethyl)pyrrolidine-1-carbonyl)-4-methyl-6-(trifluoromethyl)pyridin-2-yl)thieno[3,2-b]pyridin-2-yl)methyl)-6,6-dimethyl-3-azabicyclo[3.1.0]hexane-2,4-dione dihydrochloride] | 

More lines, now with the values behind:

Row | SMILES | IC50 [nM] | further results
12 | Cc1ccnc(CC2CNCCO2)c1-c1ccnc2cc(CN3C(=O)C4C(C3=O)C4(C)C)sc12 (stereo not shown) [Example 93, 6,6-dimethyl-3-((7-(4-methyl-2-(morpholin-2-ylmethyl)pyridin-3-yl)thieno[3,2-b]pyridin-2-yl)methyl)-3-azabicyclo[3.1.0]hexane-2,4-dione 2,2,2-trifluoroacetate] |  | inhibition at 1 µM: < 20%
13 | CC1(C)C2C(=O)N(Cc3cc4nccc(-c5cc(C(F)(F)F)cnc5C[C@@H]5CNCCO5)c4s3)C(=O)C21 (stereo partly drawn) [Example 99, 6,6-dimethyl-3-((7-(2-(((R)-morpholin-2-yl)methyl)-5-(trifluoromethyl)pyridin-3-yl)thieno[3,2-b]pyridin-2-yl)methyl)-3-azabicyclo[3.1.0]hexane-2,4-dione 2,2,2-trifluoroacetate] | < 500 | 
14 | Cc1ccnc(-c2ccnc3cc(CN4C(=O)C5C(C4=O)C5(C)C)sc23)c1C(O)[C@@H]1CNCCO1 (stereo partly drawn) [Example 101, 3-((7-(3-(hydroxy((S)-morpholin-2-yl)methyl)-4-methylpyridin-2-yl)thieno[3,2-b]pyridin-2-yl)methyl)-6,6-dimethyl-3-azabicyclo[3.1.0]hexane-2,4-dione 2,2,2-trifluoroacetate] |  | inhibition at 1 µM: < 20%
15 | Cc1nc(C(F)(F)F)cc(-c2ccnc3cc(CN4C(=O)C5C(C4=O)C5(C)C)sc23)c1CN1CCNCC1 (stereo not shown) [Example 102, 6,6-dimethyl-3-((7-(2-methyl-3-(piperazin-1-ylmethyl)-6-(trifluoromethyl)pyridin-4-yl)thieno[3,2-b]pyridin-2-yl)methyl)-3-azabicyclo[3.1.0]hexane-2,4-dione 2,2,2-trifluoroacetate] | 1000 to 10000 | 
16 | Cc1nc(C(F)(F)F)cc(-c2ccnc3cc(CN4C(=O)C5C(C4=O)C5(C)C)sc23)c1CN1CC(F)(F)C1 (stereo not shown) [Example 103, 3-((7-(3-((3,3-difluoroazetidin-1-yl)methyl)-2-methyl-6-(trifluoromethyl)pyridin-4-yl)thieno[3,2-b]pyridin-2-yl)methyl)-6,6-dimethyl-3-azabicyclo[3.1.0]hexane-2,4-dione 2,2,2-trifluoroacetate] | 1000 to 10000 | 
17 | Cc1cc(C(F)(F)F)nc(-c2ccnc3cc(CN4C(=O)C5C(C4=O)C5(C)C)sc23)c1C(=O)N1CC[C@H](C(F)F)C1 (stereo partly drawn) [Example 104, 3-((7-(3-((S)-3-(difluoromethyl)pyrrolidine-1-carbonyl)-4-methyl-6-(trifluoromethyl)pyridin-2-yl)thieno[3,2-b]pyridin-2-yl)methyl)-6,6-dimethyl-3-azabicyclo[3.1.0]hexane-2,4-dione hydrochloride] | < 500 | 
18 | Cc1cc(C(F)(F)F)nc(-c2ccnc3cc(CN4C(=O)C5C(C4=O)C5(C)C)sc23)c1C(=O)N1C[C@H]2CCN[C@H]2C1 (stereo partly drawn) [Example 108, 6,6-dimethyl-3-((7-(4-methyl-3-((3aR,6aR)-octahydropyrrolo[3,4-b]pyrrole-5-carbonyl)-6-(trifluoromethyl)pyridin-2-yl)thieno[3,2-b]pyridin-2-yl)methyl)-3-azabicyclo[3.1.0]hexane-2,4-dione dihydrochloride] | < 500 | 
19 | Cc1cc(C(F)(F)F)nc(-c2ccnc3cc(CN4C(=O)C5C(C4=O)C5(C)C)sc23)c1C(=O)N1CC[C@H](NC(=O)[C@@H](N)C(C)C)C1 (stereo partly drawn) [Example 109, (2S)-2-amino-N-((3S)-1-(2-(2-((6,6-dimethyl-2,4-dioxo-3-azabicyclo[3.1.0]hexan-3-yl)methyl)thieno[3,2-b]pyridin-7-yl)-4-methyl-6-(trifluoromethyl)nicotinoyl)pyrrolidin-3-yl)-3-methylbutanamide dihydrochloride] | < 500 | 
20 | Cc1cc(C(F)(F)F)nc(-c2ccnc3cc(CN4C(=O)C5C(C4=O)C5(C)C)sc23)c1C(=O)N1CC[C@H](NC(=O)[C@H](C)N)C1 (stereo partly drawn) [Example 110, (2S)-2-amino-N-((3S)-1-(2-(2-((6,6-dimethyl-2,4-dioxo-3-azabicyclo[3.1.0]hexan-3-yl)methyl)thieno[3,2-b]pyridin-7-yl)-4-methyl-6-(trifluoromethyl)nicotinoyl)pyrrolidin-3-yl)propanamide dihydrochloride] | 500 to 1000 | 
21 | Cc1cc(C(F)(F)F)nc(-c2ccnc3cc(CN4C(=O)C5C(C4=O)C5(C)C)sc23)c1C(=O)NC1CCNCC1 (stereo not shown) [Example 111, 2-(2-((6,6-dimethyl-2,4-dioxo-3-azabicyclo[3.1.0]hexan-3-yl)methyl)thieno[3,2-b]pyridin-7-yl)-4-methyl-N-(piperidin-4-yl)-6-(trifluoromethyl)nicotinamide dihydrochloride] |  | inhibition at 1 µM (at 1 μM of the test compound, given where IC50 not determined yet): < 20%
22 | Cc1cc(C(F)(F)F)nc(-c2ccnc3cc(CN4C(=O)C5C(C4=O)C5(C)C)sc23)c1C(=O)N1CC[C@@H]2CNC[C@@H]21 (stereo partly drawn) [Example 116, 6,6-dimethyl-3-((7-(4-methyl-3-((3aR,6aR)-octahydropyrrolo[3,4-b]pyrrole-1-carbonyl)-6-(trifluoromethyl)pyridin-2-yl)thieno[3,2-b]pyridin-2-yl)methyl)-3-azabicyclo[3.1.0]hexane-2,4-dione dihydrochloride] | < 500 | 
